Test results published in patent US5332759A, “Naphthalene amides and sulphonamides, processes for their preparation and pharmaceutical compositions containing them” (Adir et Compagnie, priority 1992, dated 1994).

Key:
[1] = system: annular sections of the basilar artery of dogs; test: In vitro vasoconstrictive activity in the basilar artery of dogs; conditions: dog basilar artery, endothelium removed
Protocol: Experiments are carried out on annular sections of the basilar artery of dogs from which the endothelium has been removed and which are placed in an organ chamber enabling the measurement of isometric contractions in the presence or absence of ketanserin.

[2] = system: annular sections of the coronary artery; test: Effect on annular sections of the coronary artery; parameters: species or system dogs; conditions: same doses as in the basilar artery test
[3] = system: sections of the saphenous vein; test: Effect on sections of the saphenous vein; parameters: species or system dogs; conditions: same doses as in the basilar artery test

| SMILES | induction of contractions in arterial sections [1] | EC50 ([1]; isometric contractions, read-out: EC50, contraction of basilar artery sections) | effect on annular sections of the coronary artery [2] | effect on sections of the saphenous vein [3] |
| --- | --- | --- | --- | --- |
| NCCc1c[nH]c2ccc(O)cc12 [serotonin, reference compound] | capable of inducing contractions | – | – | – |
| CNS(=O)(=O)Cc1ccc2cccc(CCN(C)C)c2c1 [Example 1, 2-{1-[2-(Dimethylamino)ethyl]naphth-7-yl}-N-methyl-methanesulphonamide] | – | ~1000 nM | does not show any significant effect | does not show any significant effect |
